The values that follow come from ChEMBL document CHEMBL1155726, “Seven new sesquiterpene glycosides from the root bark of Dictamnus dasycarpus” (J Nat Prod, 2001).

The assay deals with Splenocyte. The experiment in a line: Immunomodulatory activity in mouse splenocyte assessed as stimulation of proliferation at 10 umole/L after 44 hrs by MTT assay in presence of ConA. It is filed as functional, cell-based. A general note: Tetrazolium assays rely on reduction of a dye to a coloured formazan, in cell work by metabolically active cells.

Structures are written as SMILES. The source made the active and inactive calls. No cut-off for these calls is given here.

Consider `CC(C)(O)[C@@H]1CC[C@]23CO[C@](C)(CC[C@@H]2O)[C@H]3[C@@H]1O[C@@H]1O[C@H](CO)[C@@H](O)[C@H](O)[C@H]1O`, for which the outcome was Active.
